Measurements taken from US8796245B2 (TetraPhase Pharmaceuticals, Inc., priority 2008, dated 2014).
≈ marks a conversion by molar mass, not a printed value.

Legend:
Format in all cases: cell-based
[1] = test system: S. pneumoniae SP160 (tet resistant: tet M); test: Minimum inhibitory concentration assay, SP160; conditions: Streptococcus pneumoniae, read-out: MICs SP160
Description: (§1) Frozen bacterial strains were thawed and subcultured onto Mueller Hinton Broth (MHB) or other appropriate media (Streptococcus requires blood and Haemophilus requires hemin and NAD). Following incubation overnight, the strains were subcultured onto Mueller Hinton Agar and again incubated overnight. […] Isolated colonies were selected to prepare a starting inoculum equivalent to a 0.5 McFarland standard. The starting inoculum was diluted 1:125 using MHB for further use. Test compounds were prepared by dilution in sterile water to a final concentration of 5.128 mg/mL. Antibiotics (stored frozen, thawed and used within 3 hours of thawing) and compounds were further diluted to the desired working concentrations.
(§2) The assays were run as follows. Fifty μL of MHB was added to wells 2-12 of a 96-well plate. One hundred […] of appropriately diluted antibiotics was added to well 1. Fifty μL of antibiotics was removed from well 1 and added to well 2 and the contents of well 2 mixed by pipetting up and down five times. Fifty μL of the mixture in well 2 was removed and added to well 3 and mixed as above. Serial dilutions were continued in the same manner through well 12. Fifty μL was removed from well 12 so that all contained 50 μL. Fifty μL of the working inoculum was then added to all test wells. A growth control well was prepared by adding 50 μL of working inoculum and 50 μL of MHB to an empty well. The plates were then incubated at 37° C. overnight, removed from the incubator and each well was read on a plate reading mirror. The lowest concentration (MIC) of test compound that inhibited the growth of the bacteria was recorded.

[2] = test system: E. faecalis EF159 (tet resistant: tetM); test: Minimum inhibitory concentration assay, EF159; conditions: Enterococcus faecalis, read-out: MICs EF159
Description: as §1, §2

[3] = test system: K. pneumoniae ATCC 13883 (KP109); test: Minimum inhibitory concentration assay, KP109; conditions: Klebsiella pneumoniae, ATCC13883; K. pneumoniae ATCC 13883, wt; read-out: MICs KP109
Description: as §1, §2

[4] = test system: E. faecalis ATCC 29212 (EF103); test: Minimum inhibitory concentration assay, EF103; conditions: Enterococcus faecalis, ATCC29212, read-out: MICs EF103
Description: as §1, §2

[5] = test system: S. aureus ATCC 29213 (SA101, MSSA); test: Minimum inhibitory concentration assay, SA101; conditions: Staphylococcus aureus; S. aureus ATCC 29213, MSSA control; read-out: MICs SA101
Description: as §1, §2

[6] = test system: E. coli ATCC 25922 (EC107); test: Minimum inhibitory concentration assay, EC107; conditions: Escherichia coli, ATCC25922; E. coli ATCC 25922, wt; read-out: MICs EC107
Description: as §1, §2

[7] = test system: A. baumanii ATCC 19606 (AB110); test: Minimum inhibitory concentration assay, AB110; conditions: Acinetobacter baumannii, ATCC19606; A. baumanii ATCC 19606, wt; read-out: MICs AB110
Description: as §1, §2

[8] = test system: P. aeruginosa ATCC 27853 (PA111); test: Minimum inhibitory concentration assay, PA111; conditions: Pseudomonas aeruginosa, ATCC27853; P. aeruginosa ATCC 27853, wt; read-out: MICs PA111
Description: as §1, §2

[9] = test system: E. cloacae ATCC 13047 (EC108); test: Minimum inhibitory concentration assay, EC108; conditions: Enterobacter cloacae, ATCC13047; E. cloacae ATCC 13047, wt; read-out: MICs EC108
Description: as §1, §2

[10] = test system: S. aureus SA158 (tet resistant: tetK efflux); test: microbe, parasite or virus in culture; conditions: Staphylococcus aureus, read-out: MICs SA158
Description: as §1, §2

[11] = test system: E. coli EC155 (tet resistant: tetA efflux); test: microbe, parasite or virus in culture; conditions: Escherichia coli; E. coli tet resistant: tetA (efflux); read-out: MICs EC155
Description: as §1, §2

[12] = test system: K. pneumoniae KP153 (tet resistant: tetA efflux); test: microbe, parasite or virus in culture; conditions: Klebsiella pneumoniae, read-out: MICs KP153
Description: as §1, §2

[13] = test system: S. aureus ATCC 13709 (SA100, MSSA, Smith strain); test: Minimum inhibitory concentration assay, SA100; conditions: Staphylococcus aureus; S. aureus ATCC 13709, MSSA Smith strain; read-out: MICs SA100
Description: as §1, §2

[14] = test system: S. pneumoniae ATCC 49619 (SP106); test: Minimum inhibitory concentration assay, SP106; conditions: Streptococcus pneumoniae, ATCC49619; S. pneumoniae ATCC 49619, wt; read-out: MICs SP106
Description: as §1, §2

[15] = test system: S. aureus SA161 (tet resistant: tet(M) ribosomal protection); test: Minimum inhibitory concentration assay, SA161; conditions: Staphylococcus aureus, read-out: MICs SA161
Description: as §1, §2

CCCCCNCC(=O)Nc1cc(F)c2c(c1O)C(=O)C1=C(O)[C@]3(O)C(=O)C(C(N)=O)=C(O)[C@@H](N(C)C)[C@@H]3C[C@@H]1C2 [Compound 26]
MIC [1]: ≤ 0.0156 µg/mL
MIC [2]: 0.5 µg/mL (≈ 0.87 µM)
MIC [3]: 2 µg/mL (≈ 3.48 µM)
MIC [4]: 0.25 µg/mL (≈ 0.435 µM)
MIC [5]: 1 µg/mL (≈ 1.74 µM)
MIC [6]: 0.5 µg/mL (≈ 0.87 µM)
MIC [7]: 0.25 µg/mL (≈ 0.435 µM)
MIC [8]: 16 µg/mL (≈ 27.8 µM)
MIC [9]: 2 µg/mL (≈ 3.48 µM)
MIC [10]: 1 µg/mL (≈ 1.74 µM)
MIC [11]: 4 µg/mL (≈ 6.96 µM)
MIC [12]: 4 µg/mL (≈ 6.96 µM)
MIC [13]: 1 µg/mL (≈ 1.74 µM)
MIC [14]: ≤ 0.0156 µg/mL
MIC [15]: 1 µg/mL (≈ 1.74 µM)

CN(C)[C@@H]1C(O)=C(C(N)=O)C(=O)[C@@]2(O)C(O)=C3C(=O)c4c(O)c(NC(=O)CNC5CCCC5)cc(F)c4C[C@H]3C[C@@H]12 [Compound 18]
MIC [1]: ≤ 0.0156 µg/mL
MIC [2]: 0.0313 µg/mL (≈ 0.0547 µM)
MIC [3]: 0.5 µg/mL (≈ 0.873 µM)
MIC [4]: ≤ 0.0156 µg/mL
MIC [5]: 0.0625 µg/mL (≈ 0.109 µM)
MIC [6]: 0.125 µg/mL (≈ 0.218 µM)
MIC [7]: 0.25 µg/mL (≈ 0.437 µM)
MIC [8]: 16 µg/mL (≈ 27.9 µM)
MIC [9]: 0.5 µg/mL (≈ 0.873 µM)
MIC [10]: 0.125 µg/mL (≈ 0.218 µM)
MIC [11]: 4 µg/mL (≈ 6.99 µM)
MIC [12]: 4 µg/mL (≈ 6.99 µM)
MIC [13]: ≤ 0.0156 µg/mL
MIC [14]: ≤ 0.0156 µg/mL
MIC [15]: 0.0625 µg/mL (≈ 0.109 µM)

CCCCCCCNCC(=O)Nc1cc(F)c2c(c1O)C(=O)C1=C(O)[C@]3(O)C(=O)C(C(N)=O)=C(O)[C@@H](N(C)C)[C@@H]3C[C@@H]1C2 [Compound 29]
MIC [1]: 1 µg/mL (≈ 1.66 µM)
MIC [2]: 2 µg/mL (≈ 3.32 µM)
MIC [3]: 8 µg/mL (≈ 13.3 µM)
MIC [4]: 2 µg/mL (≈ 3.32 µM)
MIC [5]: 4 µg/mL (≈ 6.64 µM)
MIC [6]: 8 µg/mL (≈ 13.3 µM)
MIC [7]: 8 µg/mL (≈ 13.3 µM)
MIC [8]: > 32 µg/mL
MIC [9]: 8 µg/mL (≈ 13.3 µM)
MIC [10]: 2 µg/mL (≈ 3.32 µM)
MIC [11]: 8 µg/mL (≈ 13.3 µM)
MIC [12]: 8 µg/mL (≈ 13.3 µM)
MIC [13]: 4 µg/mL (≈ 6.64 µM)
MIC [14]: 1 µg/mL (≈ 1.66 µM)
MIC [15]: 4 µg/mL (≈ 6.64 µM)

CN(C)[C@@H]1C(O)=C(C(N)=O)C(=O)[C@@]2(O)C(O)=C3C(=O)c4c(O)c(NC(=O)CN5CC[C@@H](O)C5)cc(F)c4C[C@H]3C[C@@H]12 [Compound 39]
MIC [1]: 0.5 µg/mL (≈ 0.87 µM)
MIC [2]: 2 µg/mL (≈ 3.48 µM)
MIC [3]: 16 µg/mL (≈ 27.8 µM)
MIC [4]: 2 µg/mL (≈ 3.48 µM)
MIC [5]: 2 µg/mL (≈ 3.48 µM)
MIC [6]: 4 µg/mL (≈ 6.96 µM)
MIC [7]: 32 µg/mL (≈ 55.7 µM)
MIC [8]: > 32 µg/mL
MIC [9]: 16 µg/mL (≈ 27.8 µM)
MIC [10]: 16 µg/mL (≈ 27.8 µM)
MIC [11]: > 32 µg/mL
MIC [12]: > 32 µg/mL
MIC [13]: 2 µg/mL (≈ 3.48 µM)
MIC [14]: 0.25 µg/mL (≈ 0.435 µM)
MIC [15]: 2 µg/mL (≈ 3.48 µM)

CCN(C)CC(=O)Nc1cc(F)c2c(c1O)C(=O)C1=C(O)[C@]3(O)C(=O)C(C(N)=O)=C(O)[C@@H](N(C)C)[C@@H]3C[C@@H]1C2 [Compound 24]
MIC [1]: ≤ 0.0156 µg/mL
MIC [2]: ≤ 0.0156 µg/mL
MIC [3]: 1 µg/mL (≈ 1.83 µM)
MIC [4]: ≤ 0.0156 µg/mL
MIC [5]: 0.25 µg/mL (≈ 0.457 µM)
MIC [6]: 0.5 µg/mL (≈ 0.915 µM)
MIC [7]: 0.0313 µg/mL (≈ 0.0573 µM)
MIC [8]: 16 µg/mL (≈ 29.3 µM)
MIC [9]: 2 µg/mL (≈ 3.66 µM)
MIC [10]: 0.125 µg/mL (≈ 0.229 µM)
MIC [11]: 8 µg/mL (≈ 14.6 µM)
MIC [12]: 8 µg/mL (≈ 14.6 µM)
MIC [13]: 0.25 µg/mL (≈ 0.457 µM)
MIC [14]: ≤ 0.0156 µg/mL
MIC [15]: 0.125 µg/mL (≈ 0.229 µM)

CN(C)[C@H]1CCN(CC(=O)Nc2cc(F)c3c(c2O)C(=O)C2=C(O)[C@]4(O)C(=O)C(C(N)=O)=C(O)[C@@H](N(C)C)[C@@H]4C[C@@H]2C3)C1 [Compound 38]
MIC [1]: 8 µg/mL (≈ 13.3 µM)
MIC [2]: 16 µg/mL (≈ 26.6 µM)
MIC [3]: > 32 µg/mL
MIC [4]: 8 µg/mL (≈ 13.3 µM)
MIC [5]: 8 µg/mL (≈ 13.3 µM)
MIC [6]: > 32 µg/mL
MIC [7]: > 32 µg/mL
MIC [8]: > 32 µg/mL
MIC [9]: > 32 µg/mL
MIC [10]: 32 µg/mL (≈ 53.2 µM)
MIC [11]: > 32 µg/mL
MIC [12]: > 32 µg/mL
MIC [13]: 8 µg/mL (≈ 13.3 µM)
MIC [14]: 2 µg/mL (≈ 3.32 µM)
MIC [15]: 16 µg/mL (≈ 26.6 µM)
